Reference: EP0479121A1, “Skin treatment compositions containing beta-phosphatidyl choline derivatives” (FIDIA S.p.A., priority 1990, dated 1992)

Assays:
[1] = Emulsion stability under centrifuging at 6000 r.p.m. (Test 2); assay type: physicochemical; conditions: 250 mg in 10 g water added to 90 g standard emulsion, phase separation noted
Description: To evaluate the influence of β-phosphatidyl choline derivatives on emulsion stability, a standard emulsion was prepared having the following composition (Table 2):
The aqueous phase heated to 70°C is slowly added to the oil phase heated to 75°C. Rapid agitation is effected by a Silverson laboratory mixer equipped with an emulsifying head and is continued for about 30 minutes, slowly cooling the formed emulsion to ambient temperature.
250 mg of each of the considered β-lecithins dispersed or dissolved in 10 g of water are added under slow agitation to 90 g of the standard emulsion obtained.
The resultant emulsions are tested for stability by subjecting them to centrifuging at 6000 r.p.m. for 10, 30 and 60 minutes respectively, and by storing them under temperature control at 45°C for 72 hours. In both cases the stability is evaluated by noting any phase separation.

stratum corneum = experiment: In vivo hydration tests on human volunteers, Corneometer (Test 3); conditions: 50 mg cream on volar forearm (20 cm²), average of 10 subjects, lower numbers = higher hydration, before application 241±21; for Measured hydration values, 30': 30 min after application; for Measured hydration values, 150': 150 min after application; for Measured hydration values, 270': 270 min after application
Description: The hydration tests were conducted using a Corneometer laboratory instrument equipped with a capacitive probe able to measure the moisture present on the stratum corneum. To conduct the test, 50 mg of standard cream and cream containing the various synthetic β-lecithins prepared as Examples 1 and 2 are applied to the volar surface of the forearm (20 cm² ) with light circular massage.
The hydration measurements were taken before applying the product and 30 min, 150 min and 270 min after its application. The hydration values are expressed in arbitrary units deriving from electrical impedance measurements on the cutaneous surface. Although the values are relative they are in inverse linear relationship to the absolute water quantity present in the cutaneous layer of the skin (lower numbers correspond to higher hydration).

Row | Stability under centrifuging at 6000 r.p.m., 10 min ([1]; 10 min) | Stability under centrifuging at 6000 r.p.m., 30 min ([1]; 30 min) | Stability under centrifuging at 6000 r.p.m., 60 min ([1]; 60 min) | SMILES | Measured hydration values, 30' (stratum corneum) [arbitrary units] | Measured hydration values, 150' (stratum corneum) [arbitrary units] | Measured hydration values, 270' (stratum corneum) [arbitrary units]
1 | Stable | Stable | Stable | CCCCCCCCCCCCCCCC(=O)OCC(COC(=O)CCCCCCCCCCCCCCC)OP(=O)([O-])OCC[N+](C)(C)C [PCS1, 1,3-dipalmitoylglycero-2-phosphoryl choline] | 165±10 | 195±15 | 213±15
2 |  |  |  | CCCCCCCCCCCCCC(=O)OCC(COC(=O)CCCCCCCCCCCCC)OP(=O)([O-])OCC[N+](C)(C)C [PCS2, 1,3-dimyristoylglycero-2-phosphoryl choline] | 147±11 | 175±10 | 195±9
3 |  |  |  | CC(C)(C)C(=O)OCC(COC(=O)C(C)(C)C)OP(=O)([O-])OCC[N+](C)(C)C [PCS3, 1,3-dipivaloylglycero-2-phosphoryl choline] | 157±7 | 193±13 | 206±9
4 |  |  |  | CCCCCCCCCCCCCCCCCC(=O)OCC(COC(=O)CCCCCCCCCCCCCCCCC)OP(=O)([O-])OCC[N+](C)(C)C [PCS4, 1,3-distearoylglycero-2-phosphoryl choline] | 132±12 | 161±11 | 180±12
5 |  |  |  | COc1cc(C(=O)OCC(COC(=O)c2cc(OC)c(OC)c(OC)c2)OP(=O)([O-])OCC[N+](C)(C)C)cc(OC)c1OC [PCS5, 1,3-di(3,4,5-trimethoxybenzoyl)glycero-2-phosphoryl choline] | 124±14 | 144±16 | 177±15
